According to patent publication US20230416329A1, “A PEPTIDE WITH DISULFIDE BONDS AND INHIBITORY ACTIVITY AGAINST SERINE PROTEASES, DERIVED HYBRID PEPTIDES THEREOF, AND USES THEREOF” (INSTITUTE OF MATERIA MEDICA , CHINESE ACADEMY OF MEDICAL …, priority 2020, published 2023):
Bridge positions count the residues as written; N and C are the ends. Peptide text beside a SMILES is read from it.

Columns and labels:
elastase = elastase (Sus scrofa, UniProt P00772); assay: in vitro
Description: FIG. 19. […] At different time point, 25 μL aliquots was taken out, and 10% (v/v) TFA was added to terminate the reaction.
(§1) Mix by centrifugation at 8000 rpm for 30 seconds.
Arrange a certain volume of 0.5 μg/μL elastase solution in another sterile EP. Incubate the EP tubes containing peptides and enzymes at 37° C. for 5 min, and then add 4.5 μL of elastase solution to each EP tube containing peptides and mix well. Start timing and remove 25 μL of reaction solution at 1.5, 3.0, 4.5, 6.0, 9.0, 15.0, 30.0, and 60.0 min later, respectively. Add 3.75 μL of 10% TFA to terminate the reaction and mix well by centrifugation at 8000 rpm for 30 seconds.
Referring to the experimental method in Example 5, in vitro stability of salmon Calcitonin analogs with oral administration activity to the enzymatic hydrolysis by trypsin, chymotrypsin and elastase were performed.
Referring to the experimental method in Example 5, in vitro stability of IL-17A inhibitory peptides towards the enzymatic hydrolysis by trypsin, chymotrypsin and elastase were performed.

chymotrypsin = chymotrypsin (Bos taurus, UniProt P00766); assay: in vitro; conditions: for Remaining peak area (%)/chymotrypsin: 0 h; for remaining at 0.025 h, 60 μM / remaining at 0.05 h, 60 μM / remaining at 0.075 h, 60 μM / remaining at 0.1 h, 60 μM / remaining at 0.25 h, 60 μM / remaining at 0.5 h, 60 μM / remaining at 1 h, 60 μM / remaining at 0.15 h, 60 μM: isolated enzyme chymotrypsin, pH 7.8, Remaining peak area (%)/chymotrypsin
Summary of the method: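 Peptide and 0.05 μg/μL chymotrypsin were preincubated at 37 °C for 5 min, then mixed. Aliquots taken from 1.5 up to 60.0 min were quenched with 10% TFA, and remaining peptide was measured as RP-HPLC peak area.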

trypsin = target: T1, trypsin (Bos taurus, UniProt P00760); assay: in vitro
T1 sequence (P00760 24-246): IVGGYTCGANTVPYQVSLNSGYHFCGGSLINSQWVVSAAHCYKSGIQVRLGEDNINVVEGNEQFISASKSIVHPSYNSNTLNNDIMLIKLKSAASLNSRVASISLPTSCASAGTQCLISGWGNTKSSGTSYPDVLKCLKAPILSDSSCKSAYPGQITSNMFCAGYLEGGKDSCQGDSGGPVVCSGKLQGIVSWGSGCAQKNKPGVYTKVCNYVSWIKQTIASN
Summary of the method: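 Peptides were preincubated for 5 min at 37 °C and then digested with 0.05 μg/μL trypsin solution (stock). Remaining intact peptide was quantified as RP-HPLC peak area.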

DPP-IV = DPP-IV (Homo sapiens, UniProt P27487); assay: Tolerance of GLP-1 and its analogues to DPP-IV (RP-HPLC remaining peak area); type: in vitro ADME; conditions: peptide 25 μM, DPP-IV 0.5 ng/μL, 37° C.
Description: as §1
(2) Arrange a certain volume of 0.005 μg/μL DPP-IV solution in another sterile EP.

[1] = Stability of GLP-1 and its analogues in human serum; conditions: 25% (v/v) human serum
NEP24.11 = NEP24.11 (Homo sapiens, UniProt P08473); assay: Tolerance of GLP-1 and its analogues to NEP24.11 (RP-HPLC remaining peak area); type: in vitro ADME; conditions: peptide 30 μM, NEP24.11 1.0 ng/μL, 37° C.
Description: as §1
Arrange a certain volume of 0.04 μg/μL NEP24.11 enzyme solution in another sterile EP.

[2] = isolated enzyme trypsin, pH 7.8

Chain of DPP-IV (P27487 whole entry, species assumed): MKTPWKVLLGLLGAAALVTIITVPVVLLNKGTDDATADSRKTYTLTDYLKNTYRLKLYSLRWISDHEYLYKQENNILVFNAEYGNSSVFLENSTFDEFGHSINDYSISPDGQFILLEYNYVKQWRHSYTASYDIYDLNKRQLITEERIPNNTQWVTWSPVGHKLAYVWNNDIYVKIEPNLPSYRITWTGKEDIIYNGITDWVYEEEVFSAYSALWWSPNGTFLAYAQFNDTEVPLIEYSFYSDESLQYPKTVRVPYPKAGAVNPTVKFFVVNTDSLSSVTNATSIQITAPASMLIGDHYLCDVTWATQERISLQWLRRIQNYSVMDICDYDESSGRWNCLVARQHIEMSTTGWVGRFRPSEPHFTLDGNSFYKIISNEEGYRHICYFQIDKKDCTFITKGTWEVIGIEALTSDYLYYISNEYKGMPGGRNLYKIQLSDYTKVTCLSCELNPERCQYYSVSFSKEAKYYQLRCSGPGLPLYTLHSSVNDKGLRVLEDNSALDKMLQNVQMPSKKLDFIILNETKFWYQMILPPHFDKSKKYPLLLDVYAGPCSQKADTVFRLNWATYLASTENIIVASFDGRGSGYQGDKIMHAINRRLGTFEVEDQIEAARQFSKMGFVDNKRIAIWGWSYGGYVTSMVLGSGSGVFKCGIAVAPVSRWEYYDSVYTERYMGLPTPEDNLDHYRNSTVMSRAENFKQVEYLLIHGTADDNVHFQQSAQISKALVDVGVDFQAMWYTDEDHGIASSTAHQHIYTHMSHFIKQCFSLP
Chain of elastase (P00772 27-266): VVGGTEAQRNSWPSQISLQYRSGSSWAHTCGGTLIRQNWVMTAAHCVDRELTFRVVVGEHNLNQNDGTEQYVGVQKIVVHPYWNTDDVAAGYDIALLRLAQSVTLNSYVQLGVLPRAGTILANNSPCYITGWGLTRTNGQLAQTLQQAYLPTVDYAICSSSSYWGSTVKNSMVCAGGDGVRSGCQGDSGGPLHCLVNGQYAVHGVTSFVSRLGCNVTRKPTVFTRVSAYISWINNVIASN
Chain of NEP24.11 (P08473 whole entry): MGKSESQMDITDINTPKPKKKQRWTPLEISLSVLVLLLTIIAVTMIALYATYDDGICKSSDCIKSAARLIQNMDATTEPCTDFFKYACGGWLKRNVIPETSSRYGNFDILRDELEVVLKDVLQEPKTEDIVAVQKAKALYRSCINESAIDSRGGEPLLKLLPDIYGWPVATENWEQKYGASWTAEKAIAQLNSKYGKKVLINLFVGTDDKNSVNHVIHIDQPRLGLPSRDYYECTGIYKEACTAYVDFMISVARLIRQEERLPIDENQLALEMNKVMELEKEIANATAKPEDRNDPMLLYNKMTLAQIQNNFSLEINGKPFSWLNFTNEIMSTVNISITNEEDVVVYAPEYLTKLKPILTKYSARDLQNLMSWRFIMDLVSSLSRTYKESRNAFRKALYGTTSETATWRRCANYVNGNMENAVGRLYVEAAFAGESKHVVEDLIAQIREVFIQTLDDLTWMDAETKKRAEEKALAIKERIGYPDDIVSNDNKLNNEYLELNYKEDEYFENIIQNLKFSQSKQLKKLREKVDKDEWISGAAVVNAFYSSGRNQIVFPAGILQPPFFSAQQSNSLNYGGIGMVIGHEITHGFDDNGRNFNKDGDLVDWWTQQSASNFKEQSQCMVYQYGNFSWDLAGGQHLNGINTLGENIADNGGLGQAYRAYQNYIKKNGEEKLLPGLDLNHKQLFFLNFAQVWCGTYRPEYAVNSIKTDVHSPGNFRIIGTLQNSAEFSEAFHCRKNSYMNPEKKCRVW

CC[C@H](C)[C@H](N)C(=O)N[C@@H](Cc1c[nH]cn1)C(=O)N[C@H](C(=O)N[C@H](C(=O)N[C@H](C(=O)N1CCC[C@H]1C(=O)N[C@@H](C)C(=O)N[C@@H](CC(=O)O)C(=O)N[C@@H](CC(C)C)C(=O)N[C@@H](Cc1c[nH]c2ccccc12)C(=O)N[C@@H](CC(=O)O)C(=O)N[C@@H](Cc1c[nH]c2ccccc12)C(=O)N[C@H](C(=O)N[C@@H](CC(N)=O)C(=O)NCC(=O)N[C@H](C(=O)N[C@H]1CSSC[C@@H](C(=O)N[C@@H](CCC(N)=O)C(=O)O)NC(=O)[C@H]([C@@H](C)CC)NC(=O)[C@@H]2CCCN2C(=O)[C@@H]2CCCN2C(=O)[C@H]([C@@H](C)CC)NC(=O)[C@H](CO)NC(=O)[C@H](C)NC(=O)[C@H]([C@@H](C)O)NC1=O)[C@@H](C)CC)[C@@H](C)CC)[C@@H](C)CC)[C@@H](C)O)C(C)C [17A-EC] (H-IHVTIPADLWDWINGICTASIPPICQ-OH; disulfide 17-25)
stability towards elastase hydrolysis (in words) (elastase): tolerated to the degradation of corresponding serine proteases | Remaining peak area (%)/chymotrypsin (chymotrypsin): 100.0 ± 0.0% | remaining at 0.025 h, 60 μM (chymotrypsin): 85.5% | remaining at 0.05 h, 60 μM (chymotrypsin): 93.8 ± 2.4% | remaining at 0.075 h, 60 μM (chymotrypsin): 89.6% | remaining at 0.1 h, 60 μM (chymotrypsin): 91.6 ± 5.3% | remaining at 0.25 h, 60 μM (chymotrypsin): 79.8 ± 2.6% | remaining at 0.5 h, 60 μM (chymotrypsin): 80.9% | remaining at 1 h, 60 μM (chymotrypsin): 68%

CC[C@H](C)[C@H](NC(=O)CNC(=O)[C@@H]1CCCN1C(=O)[C@@H](NC(=O)CNC(=O)[C@H](CO)NC(=O)CNC(=O)[C@@H](NC(=O)[C@H](CC(N)=O)NC(=O)[C@@H](NC(=O)[C@H](CCCNC(=N)N)NC(=O)[C@@H]1CCCN1C(=O)[C@H](Cc1ccc(O)cc1)NC(=O)[C@@H](NC(=O)[C@H](CCC(N)=O)NC(=O)[C@H](CC(C)C)NC(=O)[C@H](CCCCN)NC(=O)[C@H](Cc1c[nH]cn1)NC(=O)[C@H](C)NC(=O)[C@H](CCC(=O)O)NC(=O)[C@H](CCC(N)=O)NC(=O)[C@H](CO)NC(=O)[C@H](CC(C)C)NC(=O)[C@H](CCCCN)NC(=O)CNC(=O)[C@H](CC(C)C)NC(=O)CNC(=O)[C@@H]1CSSC[C@H](N)C(=O)N[C@@H](CO)C(=O)N[C@@H](CC(N)=O)C(=O)N[C@@H](CC(C)C)C(=O)N[C@@H](CO)C(=O)N[C@@H]([C@@H](C)O)C(=O)N1)[C@@H](C)O)[C@@H](C)O)[C@@H](C)O)[C@@H](C)O)C(=O)N[C@H]1CSSC[C@@H](C(=O)N[C@@H](CCC(N)=O)C(=O)O)NC(=O)[C@H]([C@@H](C)CC)NC(=O)[C@@H]2CCCN2C(=O)[C@@H]2CCCN2C(=O)[C@H]([C@@H](C)CC)NC(=O)[C@H](CO)NC(=O)[C@H](C)NC(=O)[C@H]([C@@H](C)O)NC1=O [Cal-EC]
stability towards elastase hydrolysis (in words) (elastase): resistant to the corresponding protease degradation | stability towards chymotrypsin hydrolysis (in words) (chymotrypsin): certain tolerance to chymotrypsin | Remaining peak area (%)/chymotrypsin (chymotrypsin): 100.0 ± 0.0% | remaining at 0.025 h, 60 μM (chymotrypsin): 95.4% | remaining at 0.05 h, 60 μM (chymotrypsin): 31.3% | remaining at 0.1 h, 60 μM (chymotrypsin): 29.3 ± 1.4% | remaining at 0.15 h, 60 μM (chymotrypsin): 27.8 ± 0.2% | remaining at 0.25 h, 60 μM (chymotrypsin): 22.3% | remaining at 0.5 h, 60 μM (chymotrypsin): 21.4% | remaining at 1 h, 60 μM (chymotrypsin): 19.3%

CC[C@H](C)[C@H](N)C(=O)N[C@@H](Cc1c[nH]cn1)C(=O)N[C@H](C(=O)N[C@H](C(=O)N[C@H](C(=O)N1CCC[C@H]1C(=O)N[C@@H](C)C(=O)N[C@@H](CC(=O)O)C(=O)N[C@@H](CC(C)C)C(=O)N[C@@H](Cc1c[nH]c2ccccc12)C(=O)N[C@@H](CC(=O)O)C(=O)N[C@@H](Cc1c[nH]c2ccccc12)C(=O)N[C@H](C(=O)N[C@@H](CC(N)=O)C(=O)O)[C@@H](C)CC)[C@@H](C)CC)[C@@H](C)O)C(C)C [17A, reference compound]
stability towards elastase hydrolysis (in words) (elastase): unstable towards chymotrypsin and elastase | stability towards chymotrypsin hydrolysis (in words) (chymotrypsin): unstable towards chymotrypsin and elastase | Remaining peak area (%)/chymotrypsin (chymotrypsin): 100.0 ± 0.0% | remaining at 0.025 h, 60 μM (chymotrypsin): 68.8 ± 5.5% | remaining at 0.05 h, 60 μM (chymotrypsin): 59.2 ± 6.3% | remaining at 0.075 h, 60 μM (chymotrypsin): 46.2 ± 5.2% | remaining at 0.1 h, 60 μM (chymotrypsin): 41.4 ± 4.5% | remaining at 0.15 h, 60 μM (chymotrypsin): 24.3 ± 1.2% | stability towards trypsin hydrolysis (in words) (trypsin): very stable towards trypsin

CC[C@H](C)[C@H](NC(=O)[C@H](Cc1ccccc1)NC(=O)[C@H](CCC(=O)O)NC(=O)[C@H](CCCCN)NC(=O)[C@H](C)NC(=O)[C@H](C)NC(=O)[C@H](CCC(N)=O)NC(=O)CNC(=O)[C@H](CCC(=O)O)NC(=O)[C@H](CC(C)C)NC(=O)[C@H](Cc1ccc(O)cc1)NC(=O)[C@H](CO)NC(=O)[C@H](CO)NC(=O)[C@@H](NC(=O)[C@H](CC(=O)O)NC(=O)[C@H](CO)NC(=O)[C@@H](NC(=O)[C@H](Cc1ccccc1)NC(=O)[C@@H](NC(=O)CNC(=O)[C@H](CCC(=O)O)NC(=O)[C@H](C)NC(=O)[C@H](Cc1c[nH]cn1)NC(=O)CNC(=O)CNC(=O)[C@@H](NC(=O)[C@@H]1CCCN1C(=O)[C@@H](NC(=O)CNC(=O)CNC(=O)[C@@H]1CCCN1C(=O)[C@H](Cc1ccccc1)NC(=O)[C@@H]1CSSC[C@H](NC(=O)[C@H](CCCNC(=N)N)NC(=O)CN)C(=O)N[C@@H]([C@@H](C)O)C(=O)N[C@@H](CCCCN)C(=O)N[C@@H](CO)C(=O)N[C@@H]([C@@H](C)CC)C(=O)N2CCC[C@H]2C(=O)N2CCC[C@H]2C(=O)N[C@@H]([C@@H](C)CC)C(=O)N1)[C@@H](C)CC)[C@@H](C)CC)[C@@H](C)O)[C@@H](C)O)C(C)C)C(=O)N[C@@H](C)C(=O)N[C@@H](Cc1c[nH]c2ccccc12)C(=O)N[C@@H](CC(C)C)C(=O)N[C@H](C(=O)N[C@@H](CCCCN)C(=O)NCC(=O)N[C@@H](CCCNC(=N)N)C(=O)NCC(=O)NCC(=O)N[C@@H](CCCCN)C(=O)O)C(C)C [BT1-D-GLP-1]
Remaining peak area (%)/DPP-IV (DPP-IV; 0.0 h): 100.0 ± 0.0% | remaining at 0.5 h, 25 μM (DPP-IV; isolated DPP-IV enzyme in buffer, pH 8, 0.5 h): 72.3 ± 2.4% | remaining at 2 h, 25 μM (DPP-IV; isolated DPP-IV enzyme in buffer, pH 8, 2.0 h): 75.3 ± 1.5% | remaining at 4 h, 25 μM (DPP-IV; isolated DPP-IV enzyme in buffer, pH 8, 4.0 h): 72.6 ± 2% | remaining at 8 h, 25 μM (DPP-IV; isolated DPP-IV enzyme in buffer, pH 8, 8.0 h): 82 ± 3.2% | remaining at 12 h, 25 μM (DPP-IV; isolated DPP-IV enzyme in buffer, pH 8, 12.0 h): 82.5 ± 4.9% | Remaining peak area (%)/human serum ([1]; 0.0 h, peptide 0.03 mM, 37° C.): 100.0 ± 0.0% | serum stability (in words) [1]: good serum stability | remaining at 0.5 h, 0.03 mM ([1]; human, pH 7): 68.9 ± 7.1% | remaining at 2 h, 0.03 mM ([1]; human, pH 7): 95.1 ± 7.5% | remaining at 4 h, 0.03 mM ([1]; human, pH 7): 89.4 ± 7.9% | remaining at 8 h, 0.03 mM ([1]; human, pH 7): 54.8 ± 4.1% | remaining at 12 h, 0.03 mM ([1]; human, pH 7): 49.7 ± 2.5% | remaining at 0.025 h, 60 μM (chymotrypsin): 68.7 ± 1.6% | remaining at 0.05 h, 60 μM (chymotrypsin): 61.9 ± 1.5% | remaining at 0.075 h, 60 μM (chymotrypsin): 57.4 ± 2.7% | remaining at 0.1 h, 60 μM (chymotrypsin): 53.1 ± 0.5% | remaining at 0.15 h, 60 μM (chymotrypsin): 49.8 ± 2.8% | remaining at 0.025 h, 60 μM (trypsin; [2]): 97.3 ± 8.8% | remaining at 0.05 h, 60 μM (trypsin; [2]): 96.6 ± 2% | remaining at 0.075 h, 60 μM (trypsin; [2]): 90.4 ± 2.4% | remaining at 0.1 h, 60 μM (trypsin; [2]): 90.3 ± 2.5% | remaining at 0.15 h, 60 μM (trypsin; [2]): 89.7 ± 3.4% | remaining at 0.25 h, 60 μM (trypsin; [2]): 87.3 ± 2.6% | remaining at 0.5 h, 60 μM (trypsin; [2]): 88.6 ± 4.4% | remaining at 1 h, 60 μM (trypsin; [2]): 87.7 ± 6.2% | Remaining peak area (%)/NEP24.11 (NEP24.11; 0.0 h): 100.0 ± 0.0% | remaining at 0.5 h, 30 μM (NEP24.11; isolated NEP24.11 enzyme in buffer, pH 7.4, 0.5 h): 88.2 ± 2.4% | remaining at 2 h, 30 μM (NEP24.11; isolated NEP24.11 enzyme in buffer, pH 7.4, 2.0 h): 85.2 ± 0.5% | remaining at 4 h, 30 μM (NEP24.11; isolated NEP24.11 enzyme in buffer, pH 7.4, 4.0 h): 79.1 ± 3.2% | remaining at 8 h, 30 μM (NEP24.11; isolated NEP24.11 enzyme in buffer, pH 7.4, 8.0 h, read-out: Remaining peak area (%)/NEP24.11): 74 ± 1.3%
